Results: patent US20100062078A1, “PHARMACEUTICAL COMPOSITION FOR TREATING CANCER AND THE SIGNALING PATHWAY THEREOF” (priority 2008, published 2010)

Assays:
[1] = system: MDAH-2774 human ovarian cancer cells; assay: Nude mice xenograft model, tumor growth; type: in vivo; conditions: low dose (0.069 μM/g) and high dose (0.69 μM/g) i.p. every other day, 7-week treatment
Experimental: (§1) MDAH-2774 human ovarian cancer cells of 2×10^6 (or LNCap prostate cancer cells of 1×10^6) in 0.1 ml PBS were injected subcutaneously at the right flank of 6-week-old female nude mice (Foxnlun/Foxulun). When tumors became visible (approximately 3×3 mm in size), the mice were randomly grouped and treated intraperitoneally with protoapigenone or vehicle every other day. […] Tumor size and body weight were measured twice a week using calipers, and their tumor volumes were calculated according to a standard formula: width^2×length/2. After treatment with protoapigenone for 5 weeks, the mice xenografted with LNCap cells were sacrificed by deep anesthesia, and the blood sampling by cardiac aspiration was done immediately after anesthesia. Complete blood count of the nude mice blood was determined by Sysmex XE-2100 (TOA Medical Electronics, Kobe, Japan), and the plasma blood urea nitrogen (BUN), creatine (Cr), asparatate aminotransferase (AST), and alanine aminotransferase (ALT) levels were determined by Beckman LX20 (Beckman-Coulter, U.S.A.)

T47D = assay: XTT cell proliferation assay (cytotoxicity); type: cell-based; conditions: Homo sapiens; breast cancer cell line T47D
Experimental: (§2) Cells were seeded at 7×10^3 per well in 96-well culture plates before treatment with different concentrations of protoapigenone for 12, 24 and/or 48 hours. Next, the cytotoxicity of protoapigenone was determined using XTT cell proliferation assay (Sigma, St. Louis, Mo.). The absorbance of wavelength at 490 nm (OD490) and 650 nm (OD650) were determined respectively by enzyme-linked immunosorbent assay (ELISA) reader, and 50% of inhibitory concentration (IC50) was calculated by the value of OD490-OD650. In addition, in order to evaluate the long-term effect, the cells were treated with different concentration of protoapigenone for 3 hours, then were incubated with fresh medium for 14 days so as to form colonies. Finally, the cells were stained with crystal violet and were observed under the microscope.

MDA-MB-468 = assay: XTT cell proliferation assay (cytotoxicity); type: cell-based; conditions: Homo sapiens; breast cancer cell line MDA-MB-468
Experimental: as §2

SKOV3 [2] = assay: XTT cell proliferation assay (cytotoxicity); type: cell-based; conditions: Homo sapiens, SK-OV-3; ovarian cancer cell line SKOV3
Experimental: as §2

[3] = Body weight, complete blood count and biochemical profile of MDAH-2774-xenografted nude mice; type: in vivo; conditions: for Creatine / Got (glutamic-oxaloacetic transaminase) / Gpt (glutamic-pyruvic transaminase) / HCT (hematocrit) / MCV (mean corpuscular volume) / PLT / RBC / WBC / Body weight: MDAH-2774 xenograft
RT4 = assay: XTT cell proliferation assay (growth inhibition); type: cell-based, human
Experimental: as §2

T24 = assay: XTT cell proliferation assay (growth inhibition); type: cell-based, human
Experimental: as §2

Hep 3B = assay: XTT cell proliferation assay (growth inhibition); type: cell-based, human
Experimental: as §2

LNCap = assay: XTT cell proliferation assay (growth inhibition); type: cell-based, human; conditions: Homo sapiens; LNCap, 48-hour treatment
Experimental: as §2

p38 MAPK = assay: Immunoblotting, phosphorylation in LNCap cells; type: cell-based, human; conditions: LNCap, exposure for 1 hour
Excerpt: (§3) The concentration of protein supernatant was further determined using the Bio-Rad protein assay kit (Bio-Rad Laboratories, Hercules, Calif.). Whole cell lysates were separated on polyacrylamide sodium dodecyl sulfate (SDS) gels and the proteins were transferred onto the nitrocellulose membrane. Proteins were detected sequentially by the specific primary antibodies, followed by peroxidase-conjugated secondary antibodies, and visualized by the Enhanced chemiluminescence detection system (Amersham, N.J.).

JNK½ = assay: Immunoblotting, phosphorylation in LNCap cells; type: cell-based, human; conditions: exposure for 1 hour
Excerpt: as §3

LNCap cells = assay: Cell cycle analysis (PI flow cytometry); type: cell-based, human; conditions: 6 hours and 12 hours
Experimental: (§4) The ovarian cancer cells and the prostate cancer cells respectively were treated with protoapigenone at different concentrations (0, 2.5, 5 and 10 μM) for 24 hours and 6 hours (or 12 hours). These cells were harvested by trypsin and fixed with 70% ethanol for 1 hour, washed with phosphate buffered saline (PBS) twice, and resuspended in propidium iodide (PI)/RNase A solution for 30 minutes. In accordance with the mechanism of DNA stained with propidium iodide, the cell cycle and sub-G1 distribution were detected by the FACScan flow cytometry (Becton Dickinson, San Jose, Calif.), and data analysis was done with CellQuest software (BD Bioscience).

SKOV3 cells = assay: Cell survival assay (trypan blue) at cell cycle phases; type: cell-based, human; conditions: 4 hours
Experimental: SKOV3 cells at various cell cycle phases were incubated in the 6-cm Petri dishes and treated with protoapigenone at different dosages ([…]). Subsequently, the cells were harvested and mixed with trypan blue at a ratio of 1:1. The stained apoptotic cells were observed under the microscope.

[4] = system: LNCap prostate cancer cells; assay: Nude mice xenograft model, tumor volume; type: in vivo; conditions: 5 weeks
Experimental: as §1

MDAH-2774 [5] = assay: Cell cycle and sub-G1 analysis (PI flow cytometry); type: cell-based, human; conditions: MDAH-2774, 24 hours
Experimental: as §4

SKOV3 [6] = assay: Cell cycle and sub-G1 analysis (PI flow cytometry); type: cell-based, human; conditions: SKOV3, 24 hours
Experimental: as §4

MDAH-2774 [7] = assay: Clonogenic assay (colony formation); type: cell-based, human; conditions: 3 hours treatment, 14 days in fresh medium
Experimental: as §2

In the case of `O=C1C=CC(O)(c2cc(=O)c3c(O)cc(O)cc3o2)C=C1` [protoapigenone], the “tumor growth of MDAH-2774 cells vs PBS control” value [1] is reported as “significantly suppressed”, the IC50 (T47D) is reported as 5.13 ± 0.23 µM and the IC50 (MDA-MB-468) is reported as 3.33 ± 1.25 µM. For the same compound, the IC50 (SKOV3 [2]) was 0.78 ± 0.28 µM, the “impairment of hematopoiesis, liver function, or renal function” value ([3]; MDAH-2774-xenografted nude mice, intraperitoneal injection, 7 weeks) was “no significant impairment” and the Creatine ([3]; high dose, 7 weeks) was 0.5 ± 0.0 mg/dL. For the same compound, the “Got (glutamic-oxaloacetic transaminase)” value ([3]; high dose, 7 weeks) was 148.2 ± 59.3 U/L, the “Gpt (glutamic-pyruvic transaminase)” value ([3]; high dose, 7 weeks) was 52.0 ± 17.6 U/L and the “HCT (hematocrit)” value ([3]; high dose, 7 weeks) was 46.1 ± 1.8%. For the same compound, the “MCV (mean corpuscular volume)” value ([3]; high dose, 7 weeks) was 50.9 ± 0.9 fL, the PLT ([3]; high dose, 7 weeks) was 916.3 ± 100.5 10 × 3/μl and the RBC ([3]; high dose, 7 weeks) was 9.1 ± 0.3 10^6/µL. For the same compound, the WBC ([3]; high dose, 7 weeks) was 2.0 ± 0.9 10 × 3/μl, the Body weight ([3]; high dose, after treatment (7 weeks)) was 19.8 ± 1.1 g and the Body weight ([3]; high dose, before treatment) was 19.6 ± 0.8 g. The Creatine ([3]; low dose, 7 weeks) was 0.5 ± 0.0 mg/dL, the “Got (glutamic-oxaloacetic transaminase)” value ([3]; low dose, 7 weeks) was 119.5 ± 45.5 U/L and the “Gpt (glutamic-pyruvic transaminase)” value ([3]; low dose, 7 weeks) was 46.3 ± 16.7 U/L. The “HCT (hematocrit)” value ([3]; low dose, 7 weeks) was 43.5 ± 3.6%, the “MCV (mean corpuscular volume)” value ([3]; low dose, 7 weeks) was 56.2 ± 8.9 fL and the PLT ([3]; low dose, 7 weeks) was 1094.5 ± 124.9 10 × 3/μl. The RBC ([3]; low dose, 7 weeks) was 7.8 ± 1.4 10^6/µL, the WBC ([3]; low dose, 7 weeks) was 2.6 ± 1.2 10 × 3/μl and the Body weight ([3]; low dose, after treatment (7 weeks)) was 19.4 ± 0.1 g. The Body weight ([3]; low dose, before treatment) was 19.6 ± 0.6 g, the “survival rate of RT4 cells” value (RT4; 4 μM and 8 μM, 24 and 48 hours) was “decreased” and the IC50 (RT4; RT-4, human urinary bladder transitional cell papilloma RT4) was 5.11 ± 3.25 µM. The “survival rate of RT4 cells” value (RT4; low concentrations (0.5, 1 and 2 μM)) was “over 100%”, the IC50 (T24; Homo sapiens, T-24, bladder cancer T24) was 5.52 ± 0.598 µM and the growth inhibition (T24; T24, various concentrations) was “dose-dependent and time-dependent”. The growth inhibition (Hep 3B; Hep 3B, various concentrations) was “dose-dependent and time-dependent”, the IC50 (Hep 3B; Hep3B, human hepatocellular carcinoma Hep 3B) was 1.86 µM and the IC50 (LNCap) was 3.7 ± 0.2 µM. The “phosphorylation of p38 MAPK” value (p38 MAPK) was “dramatic increase”, the “phosphorylation of JNK½” value (JNK½) was “dramatic increase” and the cell cycle distribution (LNCap cells) was “arrests the LNCap cells at S and G2/M phases”. For the same compound, the “decrease in number of SKOV3 cells proliferated at G2 phase” value (SKOV3 cells; 5 μM) was 20.3%, the “decrease in number of SKOV3 cells proliferated at M phase” value (SKOV3 cells; 5 μM) was 44.8% and the “decrease in number of SKOV3 cells proliferated at S phase” value (SKOV3 cells; 5 μM) was 23.5%. For the same compound, the “decrease in number of SKOV3 cells proliferated at G2 phase” value (SKOV3 cells; 10 μM) was 34.7%, the “decrease in number of SKOV3 cells proliferated at M phase” value (SKOV3 cells; 10 μM) was 70.5% and the “decrease in number of SKOV3 cells proliferated at S phase” value (SKOV3 cells; 10 μM) was 45.4%. The average tumor size ([4]; high dose (3.7 μM/g body weight i.p. every other day)) was 1153.0±218.7 mm^3, the average tumor size ([4]; low dose (0.37 μM/g body weight i.p. every other day)) was 1876.9±428.6 mm^3 and the “apoptotic sub-G1 peak” value (MDAH-2774 [5]) was “increases the apoptotic sub-G1 peak”. For the same compound, the cell cycle distribution (MDAH-2774 [5]; various concentrations) was “enter into S and G2/M phases”, the “apoptotic sub-G1 peak” value (SKOV3 [6]) was “increases the apoptotic sub-G1 peak” and the cell cycle distribution (SKOV3 [6]; various concentrations) was “enter into S and G2/M phases”. For the same compound, the “ratio of colony formation” value (MDAH-2774 [7]) was “decrease along with the increased protoapigenone concentrations”.
